Calls of active or inactive are those of the source. The rule behind the calls is not given here.
Tests used:
[1] = test system: Echinochloa crus-galli var. formosensis; assay: Phytotoxicity in germinated seedlings of Echinochloa crus-galli var. formosensis (barnyard millet) assessed as root growth inhibition at 30 uM after 3 to 4 days; type: organism-based; settings: in vivo
[2] = test system: Oryza sativa; assay: Phytotoxicity in germinated seedlings of Oryza sativa (rice) assessed as root growth inhibition at 30 uM after 3 to 4 days; type: organism-based; settings: in vivo
[3] = test system: Echinochloa oryzicola; assay: Herbicidal activity against Echinochloa oryzicola seedlings assessed as appearance of leaf burn symptom after 3 weeks by paddy pot test under green house conditions; type: functional, organism-based
[4] = test system: Echinochloa oryzicola; assay: Herbicidal activity against sprouting stage of Echinochloa oryzicola seedlings assessed as growth inhibition after 3 weeks by paddy pot test under green house conditions; type: functional, organism-based
[5] = test system: Echinochloa oryzicola; assay: Herbicidal activity against Echinochloa oryzicola seedlings measured per 10 acres after 3 weeks by paddy pot test under green house conditions; type: functional

Row | SMILES | growth inhibition (GI) [2] | growth inhibition (GI) [4] | further results
1 | C[C@@H](Nc1nc(Cl)nc(NC(C)(C)C)n1)c1ccccc1 |  |  | growth inhibition (GI) [1]: Toxic
2 | CCNc1nc(Cl)nc(N[C@@H](C)c2ccccc2)n1 | Toxic |  | Activity [3]: Active
3 | CNc1nc(Cl)nc(N[C@@H](C)c2ccccc2)n1 | Toxic |  | 
4 | CCCCNc1nc(Cl)nc(N[C@H](C)c2ccccc2)n1 | Toxic |  | 
5 | CCNc1nc(Cl)nc(NC(C)C)n1 |  |  | Activity [3]: Active
6 | CCCNc1nc(Cl)nc(N[C@H](C)c2ccccc2)n1 | Toxic |  | 
7 | CCN(CC)c1nc(Cl)nc(NC(C)c2ccccc2)n1 (configuration not stated) |  | Active | 
8 | CCNc1nc(Cl)nc(N[C@H](C)c2ccccc2)n1 |  | Active | Activity [3]: Active
9 | CC[C@H](C)Nc1nc(Cl)nc(N[C@H](C)c2ccccc2)n1 | Toxic |  | 
10 | CCCN(CC)c1nc(Cl)nc(N[C@H](C)c2ccccc2)n1 |  |  | growth inhibition (GI) [1]: Toxic
11 | CCC(CC)Nc1nc(Cl)nc(N[C@H](C)c2ccccc2)n1 | Toxic |  | growth inhibition (GI) [1]: Toxic
12 | CCN(CC)c1nc(Cl)nc(N[C@@H](C)c2ccccc2)n1 |  | Active | 
13 | CCCN(C)c1nc(Cl)nc(N[C@H](C)c2ccccc2)n1 | Toxic |  | 
14 | CCCN(CCC)c1nc(Cl)nc(N[C@H](C)c2ccccc2)n1 | Toxic |  | growth inhibition (GI) [1]: Toxic
15 | CCNc1nc(Cl)nc(NC(C)c2ccccc2)n1 (configuration not stated) |  | Active | Activity [3]: Active
16 | CCN(CC)c1nc(Cl)nc(N[C@H](C)c2ccccc2)n1 |  | Active | Activity [5]: 250 g
